Holding throughout (test): inhibition of tumour cell growth, NCI panel, 48 h
Assay [1] has as its system NCI-H23 lung.
The subject of assay [2] is NCI-H460 lung.
The test system of assay [3] is HL-60(TB) leukemia.
For assay [4], the system named is MALME-3M melanoma.
The test system of assay [5] is SNB-19 CNS.
In assay [6] the test system is OVCAR-8 ovarian.
Assay [7] deals with SW-620 colon.
The subject of assay [8] is MDA-MB-435.
Assay [9] has as its system A498 renal.
For assay [10], the system named is CCRF-CEM leukemia.
For assay [11], the system named is RXF 393 renal.
The test system of assay [12] is A549 NSCLC.
The test system of assay [13] is MCF7 breast.
Assay [14] deals with NCI/ADR-RES ovarian.
The subject of assay [15] is OVCAR-3 ovarian.
The subject of assay [16] is HCT-116 colon.
Assay [17] concerns DU-145 prostate.
The test system of assay [18] is SK-MEL-5 melanoma.
Assay [19] concerns NCI-H226 lung.
Assay [20] concerns SNB-75 CNS.

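Following 48 hours of exposure in 96-well plates, responses at five concentrations were used to interpolate endpoints linearly. TGI is the concentration that stops growth completely.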

For `Cc1cc(C)n(CN(Cn2nc(C)cc2C)c2ccccc2)n1`, the TGI was 40.8 µM in [1]; over 100 µM in [2]; 27.3 µM in assay [3]; 52.7 µM in assay [4]; over 100 µM in assay [5]; 56 µM in [6]. The TGI in assay [7] was 69.8 µM; in [8], 29.1 µM; in assay [9], over 100 µM; in assay [10] it was 83.9 µM; in [11] it was 38.9 µM; in assay [12], over 100 µM. Besides, the TGI was 68.1 µM in [13]; 57.7 µM in assay [14]; 66.6 µM in [15]; 41.4 µM in [16]; over 100 µM in [17]; 62.4 µM in assay [18].

Consider `Cc1cc2c(cc1C)C(=O)/C(=N/Nc1ccc(F)cc1)CCO2`, for which the TGI in assay [1], in assay [2], in assay [3], in assay [4], in [5] and in [6] was over 100 µM in each case. Besides, the TGI in [7], in assay [8], in [9], in assay [10], in assay [12] and in assay [13] was over 100 µM in each case. Also, the TGI in [14], in [15], in assay [19], in [16], in [17] and in assay [18] was over 100 µM each time.

In the case of `Cc1ccc(-c2cc(-c3c(C)nn(C)c(=O)c3N)[nH]n2)cc1`, the TGI in assay [1], in [2], in assay [3], in [4], in assay [5] and in [6] was over 100 µM in each case. Besides, the TGI in assay [7], in assay [8], in assay [9], in assay [10], in assay [11] and in assay [12] was over 100 µM in each case. Moreover, the TGI in assay [13], in [14], in assay [15], in [19], in assay [16] and in assay [17] was over 100 µM throughout. In assay [18], this molecule returned a TGI of over 100 µM.

For the molecule `CN1C(=O)C23CCCCC2CC1(c1ccccc1)S3` (stereo not drawn), the TGI in assay [1], in assay [3], in assay [4], in [5], in [6] and in assay [7] was over 100 µM in each case. The TGI in [8], in [9], in assay [11], in [12], in assay [13] and in [14] was over 100 µM in each case. In addition, the TGI in assay [15], in assay [19], in assay [16], in assay [17] and in assay [18] was over 100 µM in each case.

Turning to `COc1ccc(N2C(=O)/C(=C\c3cccc(Oc4ccccc4)c3)SC2c2ccccc2)cc1` (stereo not drawn), the TGI in assay [1], in [2], in assay [3], in assay [4], in assay [5] and in assay [6] was over 100 µM in each case. In addition, the TGI is over 100 µM in assay [7]; over 100 µM in assay [8]; over 100 µM in assay [9]; 44.8 µM in assay [10]; over 100 µM in [11]; over 100 µM in assay [12]. Moreover, the TGI in assay [13], in assay [14], in [15], in [19], in assay [16] and in assay [17] was over 100 µM each time. Moreover, in assay [18], the TGI is over 100 µM.

`CN(C)CCCNC(=O)c1cc(NC(=O)c2cc(NC(=O)[C@@H]3C[C@H]3C(=O)Nc3cc(C(=O)Nc4cc(C(=O)NCCCN(C)C)n(C)c4)n(C)c3)cn2C)cn1C`: the TGI in assay [1], in assay [2], in assay [3], in assay [4], in assay [5] and in assay [6] was over 100 µM each time. Moreover, the TGI in [7], in assay [8], in assay [20], in [10], in assay [12] and in assay [13] was over 100 µM each time. The TGI in assay [14], in assay [19], in assay [16], in [17] and in assay [18] was over 100 µM each time.

Consider `CCOC(=O)NC(=S)c1ccc(O)c2ccccc12`, for which the TGI in [1] was over 100 µM; in assay [2], over 100 µM; in assay [3], 39.9 µM; in assay [4], over 100 µM; in assay [5], over 100 µM; in [6], over 100 µM. For the same molecule, the TGI in assay [7] is over 100 µM; in assay [8], over 100 µM; in [9], over 100 µM; in assay [10] it was 46.7 µM; in [12] it was over 100 µM; in assay [13] it was over 100 µM. Moreover, the TGI in assay [14], in assay [15], in assay [16], in [17] and in [18] was over 100 µM in each case.

`O=C(Nc1nc(C23CC4CC(CC(C4)C2)C3)cs1)c1cc2c(ccc3ccccc32)oc1=O`: the TGI in [1], in [2], in assay [3], in assay [4], in [5] and in assay [6] was over 100 µM throughout. Moreover, the TGI in assay [7], in assay [8], in assay [9], in assay [10], in assay [12] and in [13] was over 100 µM in each case. In addition, the TGI in assay [14], in [15], in assay [19], in assay [16], in [17] and in assay [18] was over 100 µM in each case.

Regarding `CCCCCCCCCc1c(O)c(O)c(CCCCCCCCC)c(CCCCCCCCC)c1CCCCCCCCC`, the TGI in [1] was over 100 µM; in [2], over 100 µM; in assay [3] it was 50 µM; in [4] it was over 100 µM; in assay [5], over 100 µM; in [6], over 100 µM. Further, the TGI in assay [7] was over 100 µM; in assay [8], over 100 µM; in [9], over 100 µM; in [10] it was 88.6 µM; in assay [11], over 100 µM; in assay [12], over 100 µM. The TGI in [13], in assay [14], in [15], in assay [19], in assay [16] and in assay [17] was over 100 µM in each case. In addition, the TGI in assay [18] was over 100 µM.

`N#Cc1c(N)c(C#N)c2c(c1-c1ccc(Cl)cc1)COc1ccccc1-2`: the TGI in assay [1] was 39.9 µM; in assay [2], over 100 µM; in [3] it was 68.8 µM; in [4] it was 58.1 µM; in [5], 30.6 µM; in [7], over 100 µM. Besides, the TGI in assay [8] was 99.4 µM; in assay [9], 37.7 µM; in assay [10], 33 µM; in assay [11], 30.4 µM; in assay [12], 33.2 µM; in assay [13] it was over 100 µM. The TGI in assay [14] came to 68.5 µM; in assay [15], 30.6 µM; in [19], 98.9 µM; in assay [16], 40.7 µM; in [17], 68.6 µM; in [18], 71.6 µM.

Consider `COc1ccc2c(-c3ccc(O)cc3)c(Oc3ccc(Cl)cc3)c(=O)oc2c1`, for which the TGI in assay [1] is 8.32 µM; in assay [2] it was 19.8 µM; in assay [4] it was 13.8 µM; in assay [5], 24.2 µM; in assay [6] it was over 48.8 µM; in assay [7] it was over 32 µM. The TGI was 25.7 µM in assay [8]; 22.5 µM in [9]; 33.8 µM in assay [20]; over 100 µM in assay [10]; 25 µM in assay [11]; over 29.5 µM in [12]. Also, the TGI in [13] was over 23.1 µM; in [14], over 46 µM; in [15], 12.3 µM; in [19] it was over 43.3 µM; in [16], over 33.6 µM; in assay [17], 24.7 µM. In addition, the TGI in assay [18] came to 10.4 µM.

Regarding `COC(=O)c1cc(C)n(CN(Cc2ccccc2)Cn2nc(C(=O)OC)cc2C)n1`, the TGI in [1] is over 100 µM; in assay [2], over 100 µM; in assay [4], over 100 µM; in assay [5] it was over 100 µM; in assay [6], over 100 µM; in assay [7], over 78 µM. Further, the TGI in assay [8] is over 100 µM; in assay [9], over 100 µM; in [20] it was over 100 µM; in assay [10] it was over 67.6 µM; in assay [11] it was 98 µM; in [12], over 100 µM. Further, the TGI was over 100 µM in assay [13]; over 100 µM in [14]; over 100 µM in assay [15]; over 100 µM in [19]; over 59.8 µM in assay [16]; over 100 µM in assay [17]. For the same molecule, the TGI in [18] is over 100 µM.

The values above are taken from PubChem BioAssay (NCI).
